Assay results taken from ChEMBL document CHEMBL1201862, “PubChem BioAssay data set” (2004).
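48-hour exposure; five concentrations; linearly interpolated endpoints. At the GI50, growth is halved.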 The source made the active and inactive calls. Cut-off read from the data, not from the text of the source: active = GI50 up to about 1.1 µM and inactive = higher.

Assays:
Test in all cases: growth of human tumour cells (NCI), 48 h
COLO 205 = test system: COLO 205
CCRF-CEM = test system: CCRF-CEM
RPMI-8226 = test system: RPMI-8226
RXF 393 = test system: RXF 393
A498 = test system: A498
MDA-MB-435 = test system: MDA-MB-435
MDA-N = test system: MDA-N
OVCAR-5 = test system: OVCAR-5
EKVX = test system: EKVX
SK-MEL-28 = test system: SK-MEL-28
MDA-MB-231 = test system: MDA-MB-231
SK-OV-3 = test system: SK-OV-3
NCI-H23 = test system: NCI-H23
HCT-15 = test system: HCT-15
U-251 = test system: U-251
SNB-75 = test system: SNB-75
KM12 = test system: KM12
UACC-257 = test system: UACC-257
NCI/ADR-RES = test system: NCI/ADR-RES
K562 = test system: K562
LOX IMVI = test system: LOX IMVI
SK-MEL-5 = test system: SK-MEL-5
SF-295 = test system: SF-295
T47D = test system: T47D
HL-60 = test system: HL-60
A549 = test system: A549
NCI-H460 = test system: NCI-H460
HT-29 = test system: HT-29
UACC-62 = test system: UACC-62
CAKI-1 = test system: CAKI-1
786-0 = test system: 786-0
HOP-92 = test system: HOP-92
OVCAR-3 = test system: OVCAR-3
SNB-19 = test system: SNB-19
SN12C = test system: SN12C
Malme-3M = test system: Malme-3M
NCI-H226 = test system: NCI-H226
SK-MEL-2 = test system: SK-MEL-2
HCC 2998 = test system: HCC 2998
MOLT-4 = test system: MOLT-4
OVCAR-8 = test system: OVCAR-8
TK-10 = test system: TK-10
BT-549 = test system: BT-549
HCT-116 = test system: HCT-116
ACHN = test system: ACHN
Hs-578T = test system: Hs-578T
NCI-H522 = test system: NCI-H522
UO-31 = test system: UO-31
DU-145 = test system: DU-145
SR = test system: SR
IGROV-1 = test system: IGROV-1
SW-620 = test system: SW-620
OVCAR-4 = test system: OVCAR-4
SF-268 = test system: SF-268
MCF7 = test system: MCF7
PC-3 = test system: PC-3
M14 = test system: M14
HOP-62 = test system: HOP-62

CC(C)=CCC[C@@H](C)C1=C(Nc2ccccc2)C(=O)C(C)=C(O)C1=O
GI50 (COLO 205): 2.74 µM (inactive) | GI50 (CCRF-CEM): 0.239 µM (active) | GI50 (RPMI-8226): 9.66 µM (inactive) | GI50 (RXF 393): 3.78 µM (inactive) | GI50 (A498): 3.34 µM (inactive) | GI50 (MDA-MB-435): 4.72 µM (inactive) | GI50 (MDA-N): 4.54 µM (inactive) | GI50 (OVCAR-5): 8.95 µM (inactive) | GI50 (EKVX): 3.86 µM (inactive) | GI50 (SK-MEL-28): 8.02 µM (inactive) | GI50 (MDA-MB-231): 2.89 µM (inactive) | GI50 (SK-OV-3): 5.58 µM (inactive) | GI50 (NCI-H23): 2.82 µM (inactive) | GI50 (HCT-15): 0.875 µM | GI50 (U-251): 2.74 µM (inactive) | GI50 (SNB-75): 3.11 µM (inactive) | GI50 (KM12): 3.42 µM (inactive) | GI50 (UACC-257): 5.53 µM (inactive) | GI50 (NCI/ADR-RES): 0.815 µM (active) | GI50 (K562): 2.92 µM (inactive) | GI50 (LOX IMVI): 3.92 µM (inactive) | GI50 (SK-MEL-5): 2 µM (inactive) | GI50 (SF-295): 1.85 µM (inactive) | GI50 (T47D): 6.7 µM (inactive) | GI50 (HL-60): 0.303 µM (active) | GI50 (A549): 2.56 µM (inactive) | GI50 (NCI-H460): 1.63 µM (inactive) | GI50 (HT-29): 4.16 µM (inactive) | GI50 (UACC-62): 4.03 µM (inactive) | GI50 (CAKI-1): 2.82 µM (inactive) | GI50 (786-0): 4.75 µM (inactive) | GI50 (HOP-92): 2.87 µM (inactive) | GI50 (OVCAR-3): 2.21 µM (inactive) | GI50 (SNB-19): 3.77 µM (inactive) | GI50 (SN12C): 4.19 µM (inactive) | GI50 (Malme-3M): 4.2 µM (inactive) | GI50 (NCI-H226): 3.13 µM (inactive) | GI50 (SK-MEL-2): 2.52 µM (inactive) | GI50 (HCC 2998): 5.92 µM (inactive) | GI50 (MOLT-4): 0.719 µM (active) | GI50 (OVCAR-8): 2.1 µM (inactive) | GI50 (TK-10): 4.29 µM (inactive) | GI50 (BT-549): 3.67 µM (inactive) | GI50 (HCT-116): 1.53 µM (inactive) | GI50 (ACHN): 2.56 µM (inactive) | GI50 (Hs-578T): 2.34 µM (inactive) | GI50 (NCI-H522): 3.03 µM (inactive) | GI50 (UO-31): 3.77 µM (inactive) | GI50 (DU-145): 4.59 µM (inactive) | GI50 (SR): 0.631 µM (active) | GI50 (IGROV-1): 3.01 µM (inactive) | GI50 (SW-620): 3.78 µM (inactive) | GI50 (OVCAR-4): 6.62 µM (inactive) | GI50 (SF-268): 1.73 µM (inactive) | GI50 (MCF7): 4.29 µM (inactive) | GI50 (PC-3): 3.63 µM (inactive) | GI50 (M14): 3.13 µM (inactive) | GI50 (HOP-62): 1.81 µM (inactive)

O=Cc1cc([N+](=O)[O-])no1
GI50 (COLO 205): 36 µM (inactive) | GI50 (CCRF-CEM): 16.6 µM (inactive) | GI50 (RPMI-8226): 16.9 µM (inactive) | GI50 (RXF 393): > 100 µM (inactive) | GI50 (A498): > 100 µM (inactive) | GI50 (MDA-MB-435): 15.2 µM (inactive) | GI50 (MDA-N): 23.7 µM (inactive) | GI50 (OVCAR-5): 71.8 µM (inactive) | GI50 (SK-MEL-28): > 100 µM (inactive) | GI50 (MDA-MB-231): 26.5 µM (inactive) | GI50 (SK-OV-3): > 100 µM (inactive) | GI50 (NCI-H23): 33.8 µM (inactive) | GI50 (HCT-15): 36.8 µM | GI50 (U-251): 53.3 µM (inactive) | GI50 (SNB-75): > 100 µM (inactive) | GI50 (KM12): 18.7 µM (inactive) | GI50 (UACC-257): 28.5 µM (inactive) | GI50 (NCI/ADR-RES): 52.4 µM (inactive) | GI50 (K562): 4.85 µM (inactive) | GI50 (LOX IMVI): 7.13 µM (inactive) | GI50 (SK-MEL-5): 20 µM (inactive) | GI50 (SF-295): 32.5 µM (inactive) | GI50 (T47D): 50.5 µM (inactive) | GI50 (HL-60): 15.9 µM (inactive) | GI50 (NCI-H460): 44.9 µM (inactive) | GI50 (HT-29): 23 µM (inactive) | GI50 (UACC-62): 19.7 µM (inactive) | GI50 (CAKI-1): > 100 µM (inactive) | GI50 (HOP-92): > 100 µM (inactive) | GI50 (OVCAR-3): 40.6 µM (inactive) | GI50 (SNB-19): 92.9 µM (inactive) | GI50 (SN12C): 38.9 µM (inactive) | GI50 (Malme-3M): > 10 µM (inactive) | GI50 (NCI-H226): 78.9 µM (inactive) | GI50 (SK-MEL-2): 24.4 µM (inactive) | GI50 (HCC 2998): 35.2 µM (inactive) | GI50 (MOLT-4): 18.7 µM (inactive) | GI50 (OVCAR-8): 41 µM (inactive) | GI50 (TK-10): > 100 µM (inactive) | GI50 (BT-549): > 100 µM (inactive) | GI50 (HCT-116): 11 µM (inactive) | GI50 (Hs-578T): 46.6 µM (inactive) | GI50 (UO-31): > 100 µM (inactive) | GI50 (DU-145): 80.5 µM (inactive) | GI50 (SR): 31.4 µM (inactive) | GI50 (IGROV-1): 59 µM (inactive) | GI50 (SW-620): 14.8 µM (inactive) | GI50 (OVCAR-4): 17.2 µM (inactive) | GI50 (MCF7): 22 µM (inactive) | GI50 (PC-3): 24.7 µM (inactive) | GI50 (M14): 17.1 µM (inactive) | GI50 (HOP-62): 38.1 µM (inactive)

CC1=NN(c2ccccc2)C2(C1)C(Cl)C(=O)N2c1nc2ccccc2s1 (stereo not drawn)
GI50 (COLO 205): 27.3 µM (inactive) | GI50 (CCRF-CEM): 14.9 µM (inactive) | GI50 (RPMI-8226): 18.1 µM (inactive) | GI50 (RXF 393): 23.8 µM (inactive) | GI50 (A498): 53 µM (inactive) | GI50 (MDA-MB-435): 40.6 µM (inactive) | GI50 (MDA-N): 35.6 µM (inactive) | GI50 (OVCAR-5): 41.7 µM (inactive) | GI50 (EKVX): 30.6 µM (inactive) | GI50 (SK-MEL-28): 36.6 µM (inactive) | GI50 (MDA-MB-231): 28.8 µM (inactive) | GI50 (SK-OV-3): 32.1 µM (inactive) | GI50 (NCI-H23): 24.2 µM (inactive) | GI50 (HCT-15): 29.9 µM | GI50 (U-251): 26 µM (inactive) | GI50 (SNB-75): 80.5 µM (inactive) | GI50 (KM12): 49.5 µM (inactive) | GI50 (UACC-257): 80.2 µM (inactive) | GI50 (NCI/ADR-RES): 23.9 µM (inactive) | GI50 (K562): 33.6 µM (inactive) | GI50 (LOX IMVI): 13.5 µM (inactive) | GI50 (SK-MEL-5): 20.8 µM (inactive) | GI50 (SF-295): 28.8 µM (inactive) | GI50 (T47D): 31.5 µM (inactive) | GI50 (HL-60): 21.1 µM (inactive) | GI50 (A549): 35.2 µM (inactive) | GI50 (NCI-H460): 31 µM (inactive) | GI50 (HT-29): 34.9 µM (inactive) | GI50 (UACC-62): 34.4 µM (inactive) | GI50 (CAKI-1): 66.7 µM (inactive) | GI50 (786-0): 31.9 µM (inactive) | GI50 (HOP-92): 73.6 µM (inactive) | GI50 (OVCAR-3): 15.8 µM (inactive) | GI50 (SNB-19): 43 µM (inactive) | GI50 (SN12C): 23.5 µM (inactive) | GI50 (Malme-3M): 42.2 µM (inactive) | GI50 (NCI-H226): 15.1 µM (inactive) | GI50 (SK-MEL-2): 23.8 µM (inactive) | GI50 (HCC 2998): 60.4 µM (inactive) | GI50 (MOLT-4): 20.7 µM (inactive) | GI50 (OVCAR-8): 36.1 µM (inactive) | GI50 (TK-10): > 100 µM (inactive) | GI50 (BT-549): 34.1 µM (inactive) | GI50 (HCT-116): 21.5 µM (inactive) | GI50 (ACHN): 46.9 µM (inactive) | GI50 (Hs-578T): 50.5 µM (inactive) | GI50 (NCI-H522): 21.6 µM (inactive) | GI50 (UO-31): 26.6 µM (inactive) | GI50 (DU-145): 36.2 µM (inactive) | GI50 (SR): 22.9 µM (inactive) | GI50 (IGROV-1): 16.6 µM (inactive) | GI50 (SW-620): 29.9 µM (inactive) | GI50 (OVCAR-4): 85.1 µM (inactive) | GI50 (SF-268): 29.9 µM (inactive) | GI50 (MCF7): 43.9 µM (inactive) | GI50 (PC-3): 37.1 µM (inactive) | GI50 (M14): 33.2 µM (inactive) | GI50 (HOP-62): 25.2 µM (inactive)
